According to US20220194952A1, “TETRAPYRROLIC CONJUGATES AND USES THEREOF FOR IMAGING” (Health Research, Inc., priority 2019, published 2022):

Tests used:
[1] = Fluorescence quantum yield and lifetime in benzonitrile (PhCN); assay type: physicochemical
Experimental: (B) Fluorescence decay curve of 4 observed at 787 nm. Excitation wavelength: 651 nm.
(§1) Instrumentation: Measurement of fluorescence quantum yields were carried out on a Hamamatsu C9920-0X(PMA-12) U6039-05 fluorescence spectrofluorometer. Femtosecond laser flash photolysis was conducted using a Clark-MXR 2010 laser system and an optical detection system provided by Ultrafast Systems (Helios). The source for the pump and probe pulses were derived from the fundamental output of Clark laser system (775 nm, 1 mJ pulse-1 and fwhm=150 fs) at a repetition rate of 1 kHz. A second harmonic generator introduced in the path of the laser beam provided […] laser pulses for excitation. A 95% of the fundamental output of the laser was used to generate the second harmonic, while 5% of the deflected output was used for white light generation. Prior to generating the probe continuum, the laser pulse was fed to a delay line that provided an experimental time window of 1.6 ns with a maximum step resolution of 7 fs. The pump beam was attenuated at 5 μJ pulse-1 with a spot size of 2 mm diameter at the sample cell where it was merged with the white probe pulse in a close angle (<10°). […] The photodynamics were monitored by continuous exposure to a xenon lamp for visible region and halogen lamp for near-IR region as a probe light and a photomultiplier tube (Hamamatsu 2949) as a detector.

[2] = Nanosecond laser flash transient absorption of triplet excited state in PhCN; assay type: physicochemical
Experimental: The decay time profiles at 580 nm in (b) argon- and (c) air-saturated PhCN. The single-exponential fitting curves are shown as gray lines.
Singlet oxygen is generated by energy transfer from the triplet excited state of 4 to molecular oxygen (O2). […] The decay profile of T-T absorption was obeyed with the single exponential curve (FIG. 6b). The lifetime was determined to be τ=38 μs. […] The energy transfer rate constant was determined to be 1.4×10^9M^−1 s^−1, indicating the efficient energy transfer occurred between the triplet excited state of 4 and O2 to for singlet oxygen generation.
as §1

[3] = Absorbance (UV-VIS) in methanol; assay type: physicochemical; conditions: ε665 for 2 (peak 660 nm), ε785 for 4 (peak 785 nm)
Experimental: Absorbance of 2 and 4 was measured using different concentrations in methanol on UV-VIS and indicates far-red peaks at 660 nm and 785 nm, with extinction coefficients ε665=47,500 L·mol^−1 cm^−1 and ε785=18,100 L·mol^−1 cm^−1 respectively.
Chemistry Methods: All reactions were carried out in heat gun-dried glassware under an atmosphere of nitrogen and magnetic stirring. Thin layer chromatography (TLC) was done on pre-coated silica gel sheets (layer thickness 0.2 mm). Column chromatography was performed either using silica gel 60 (70-230 mesh) or neutral alumina grade III. In some cases preparative TLC was used for the purification of compounds. Purity of the compounds was ascertained by TLC and HPLC analysis. All compounds including the intermediates were >95% pure. UV-visible spectra were recorded on FT UV-visible spectrophotometer using methanol as a solvent. Mass spectrometry analyses were performed at the Mass Spectrometry Facility, University at Buffalo, N.Y. Compounds 1 and 2 were synthesized by following the methodologies previously described.

Colon26 tumors = assay: In vivo PDT efficacy; parameters: species or system BALB/c mice
Experimental: Tumors were exposed to light (135 J/cm^2, 75 mW/cm^2) at 24 h (hour) postinjection (optimal time for tumor uptake for both the PSs).
For determining the in vivo imaging and therapeutic potential of 2, BALB/c mice (5-10 mice/group) bearing Colon26 tumors were used. In brief, 1×10^6 Colon26 cells were injected in mice subcutaneously. The tumors were left to grow for 1 week until they achieve the desired size (3-5 mm) for treatment. The photosensitizer was injected intravenously following the animal protocol approved by RPCI IACUC committee. Irradiance occurred 24 hours after i. v. injection; light dose was 135 J/cm^2 at a dose rate of 75 mW/cm^2 using the near-IR wavelengths of interest: 665 nm or 789 nm.
Two axes of the tumor (L, longest axis; W, shortest axis) were measured in millimeters with the aid of a Vernier caliper. Tumor weight (mg) was estimated as a formula: tumor weight=1/2 (L×W2). Tumor measurements were taken daily for the first 10 days and at least three tine a week for the first 4 weeks of post therapy and twice a week thereafter. Endpoints were 400 mm^3 tumor volume or 60 days.

**Q.** With “methyl 3-[1′-(m-iodobenzyloxy)ethyl]-3-devinyl-13^3-keto-13^2-methoxycyclohexene [Compound 4]” as the substance, how does the fluorescence lifetime ([1]; PhCN, decay observed at 787 nm, excitation 651 nm) read?
**A.** 0.81 ns

**Q.** And the “Fluorescence quantum yield Φ” value ([1]; benzonitrile (PhCN), excited at 532 nm)?
**A.** 0.013

**Q.** And the “energy transfer rate constant, triplet excited state to O2” value ([2]; PhCN)?
**A.** 1.4e+09 M⁻¹ s⁻¹

**Q.** What about the “triplet decay rate constant in the presence of dissolved O2” value ([2]; air-saturated PhCN) of the same substance?
**A.** 2.3e+06 s⁻¹

**Q.** And the “triplet excited state lifetime τ” value ([2]; deaerated (argon-saturated) PhCN, T-T absorption decay at 580 nm)?
**A.** 38 μs

**Q.** And the “extinction coefficient at far-red absorbance peak” value [3]?
**A.** 18,100 L·mol^−1 cm^−1

**Q.** And the “PDT efficacy compared with 2 (in words)” value (Colon26 tumors; BALB/c mice bearing Colon26 tumors)?
**A.** far lower than that of 2

**Q.** And the “tumor cure after PDT” value (Colon26 tumors; dose 1 μmol/kg, light 135 J/cm^2, 75 mW/cm^2 at 24 h postinjection, 5 mice/group)?
**A.** no tumor cure

**Q.** What about the “long-term PDT efficacy at higher drug doses (in words)” value (Colon26 tumors; higher drug doses than 1 μmol/kg, light 135 J/cm^2, 75 mW/cm^2 at 24 h) of the same substance?
**A.** no significant long-term PDT efficacy
